Patent US4481200A, “α2 -Adrenoceptor antagonistic benzoquinolizines” (John Wyeth & Brother, Limited, priority 1982, dated 1984)

What was measured:
α1-adrenoceptor [1] = biological target: T1, α1-adrenoceptor (Rattus norvegicus, UniProt P43140); assay: α1 antagonistic activity on the isolated anococcygeus muscle of the rat (phenylephrine or methoxamine as agonist); details: antagonism of phenylephrine or methoxamine, rat anococcygeus muscle, 37°, 30 min equilibration, 10^-6 to 10^-4 M; Arunlakshana & Schild; read-out: pA2 (α1) (converted)
T1 construct: One method involves assessing the activity on the isolated anococcygeus muscle of the rat; from tissue; host or cells: rat anococcygeus muscle
T1 sequence (P43140 1-466): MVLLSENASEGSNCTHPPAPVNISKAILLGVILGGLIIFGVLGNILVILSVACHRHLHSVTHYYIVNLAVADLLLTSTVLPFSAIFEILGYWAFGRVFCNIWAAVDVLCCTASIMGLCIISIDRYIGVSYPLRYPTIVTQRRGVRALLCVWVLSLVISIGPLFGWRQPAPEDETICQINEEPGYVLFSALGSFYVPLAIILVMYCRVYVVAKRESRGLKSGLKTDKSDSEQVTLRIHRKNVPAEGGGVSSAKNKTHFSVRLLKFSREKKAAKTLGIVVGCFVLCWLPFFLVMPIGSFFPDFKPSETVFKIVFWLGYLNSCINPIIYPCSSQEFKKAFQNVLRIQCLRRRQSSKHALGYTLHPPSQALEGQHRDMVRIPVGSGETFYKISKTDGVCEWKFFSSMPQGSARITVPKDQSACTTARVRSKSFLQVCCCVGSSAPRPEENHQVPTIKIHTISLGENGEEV
Text: (§1) The compounds of the invention antagonise the α2 -adrenoceptors to a much greater extent than the α1 -adrenoceptors. The α1 antagonistic activity can be evaluated by a number of different methods. One method involves assessing the activity on the isolated anococcygeus muscle of the rat. The method is based on that of Gillespie, Br.J.Pharmac., 1972, 45, 404-416. In the procedure male rats (250-360 g) are killed by a blow on the head and bled. The two anococcygeus muscles are removed from their position in the midline of the pelvic cavity, where they arise from the upper coccygeal vertebrae. The muscles are suspended in 5 ml organ baths in Krebs solution containing 10^-4 M ascorbic acid, to prevent drug oxidation. The tissues are gassed with a 95% oxygen, 5% CO2 mixture and maintained at 37°. Longitudinal muscle contractions are recorded using isotonic transducers. Cumulative dose response curves are then obtained to phenylephrine or in some cases methoxamine, both agents being […] alpha adrenoceptor agonists. The concentration range of phenylephrine or methoxamine used is 0.02 to 0.8 μg.ml^-1. The agonist is then washed from the bath and the test drug added to the bathing medium at a concentration of 10^-6 M. After 30 min equilibration with the test drug a further agonist dose response curve is obtained. The washing, equilibration and agonists dosing procedures are then repeated using 10^-5 M and 10^-4 M solutions of the test drug. Estimates of the pA2 value for the test drug as an antagonist of phenylephrine or methoxamine were made from the agonist dose-ratios using the method of Arunlakshana & Schild, Br.J.Pharmac. Chemother., 1959, 14, 48-58.

α1-adrenoceptor [2] = assay: as above; details: antilog of (α2 pA2-α1 pA2)
Text: as §1

α2-adrenoceptor = biological target: T2, α2-adrenoceptor (Rattus norvegicus, UniProt P22909); assay: α2-adrenoceptor antagonistic activity on the rat field stimulated vas deferens preparation (clonidine as agonist); details: antagonism of clonidine, 37°, 90 min after introduction of antagonist, Arunlakshana & Schild, read-out: pA2 (α2) (converted)
T2 construct: from tissue; host or cells: rat vas deferens
T2 sequence (P22909 1-465): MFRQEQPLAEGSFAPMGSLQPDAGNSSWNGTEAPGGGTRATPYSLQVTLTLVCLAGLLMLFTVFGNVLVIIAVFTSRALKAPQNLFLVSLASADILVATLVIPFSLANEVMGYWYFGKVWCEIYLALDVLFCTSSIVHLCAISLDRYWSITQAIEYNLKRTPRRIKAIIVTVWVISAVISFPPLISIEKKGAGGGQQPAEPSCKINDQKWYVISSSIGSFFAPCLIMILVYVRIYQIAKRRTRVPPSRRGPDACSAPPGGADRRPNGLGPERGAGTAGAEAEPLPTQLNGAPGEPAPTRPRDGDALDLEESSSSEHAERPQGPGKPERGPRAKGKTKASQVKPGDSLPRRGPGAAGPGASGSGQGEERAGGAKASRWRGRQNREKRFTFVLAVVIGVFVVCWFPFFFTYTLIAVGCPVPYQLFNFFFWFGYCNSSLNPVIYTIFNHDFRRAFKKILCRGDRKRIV
Description: The compounds of the invention were tested for α2 -adrenoceptor antagonistic activity on the rat field stimulated vas deferens preparation using a modification of the method of Drew, Eur. J. Pharmac., 1977, 42, 123-130. The procedure is described below.
Desheathed vasa deferentia from sexually mature rats were suspended in a 6 ml organ bath in Krebs solution at 37° and bubbled with 5% CO2 in oxygen. Platinum ring electrodes were positioned above and below the tissue for field stimulation, The stimulus parameters being 0.1 Hz 1 ms pulse width at supramaximal voltage. Twitch responses were recorded isotonically with a 0.5 g loading. Clonidine hydrochloride was used as the α-adrenoceptor agonist and cumulative concentration-response curves were constructed for the inhibition of twitch obtained with clonidine in the range 0.125 to 4 ng ml^-1. After washing out clonidine, the twitch response quickly recovered and an antagonist was then introduced into the Krebs reservoir. Clonidine concentration-response curves were repeated 90 min after introduction of the antagonist. The concentration of clonidine producing 50% inhibition of twitch before and after introduction of antagonist were obtained and the dose-ratio for clonidine was calculated. Various concentrations of the antagonists were used.
Chemother., 1959, 14, 48-58 and the values of pA2 and slope were calculated.

| Compound | Kb (α1-adrenoceptor [1]) | α2/α1 selectivity (α1-adrenoceptor [2]) | Kb (α2-adrenoceptor) |
| --- | --- | --- | --- |
| CN(C)S(=O)(=O)N(C)[C@@H]1CCN2CCc3ccccc3[C@@H]2C1 (relative stereo) [Example 2, N,N,N'-Trimethyl-N'-[1,3,4,6,7,11bα-hexahydro-2H-benzo[a]quinolizin-2β-yl]sulphamide] | 1.12 µM | 28 | 0.0398 µM |
| CN(C)CCS(=O)(=O)N(C)[C@@H]1CCN2CCc3ccccc3[C@@H]2C1 (relative stereo) [Example 3, N-Methyl-N-(1,3,4,6,7,11bα-hexahydro-2H-benzo[a]quinolizin-2β-yl)-2-dimethylaminoethanesulphonamide] | 2.51 µM | 46 | 0.055 µM |
| CNS(=O)(=O)N(C)[C@@H]1CCN2CCc3ccccc3[C@@H]2C1 (relative stereo) [Example 1, N-Methyl-N-(1,3,4,6,7,11bα-hexahydro-2H-benzo[a]quinolizin-2β-yl)-N'-methylsulphamide] | 0.646 µM | 18 | 0.0363 µM |
| CC(C)NS(=O)(=O)N(C)[C@@H]1CCN2CCc3ccccc3[C@@H]2C1 (relative stereo) [Example 4, N-(i-Propyl)-N'-(1,3,4,6,7,11bα-hexahydro-2H-benzo[a]quinolizin-2β-yl)-N'-methylsulphamide] | 0.363 µM | 10 | 0.0372 µM |
